The nature of series [1]: Spectrophotometry and two-photon excitation scans. It counts as physicochemical. The protocol: Spectrophotometry: Absorption readings were obtained using a Nanodrop One system (Thermo Scientific), while excitation and emission scans were obtained using a Spectramax M2 dual grating system (Molecular Devices). Intensity scans relative to excitation wavelength obtained on either of our custom two-photon excitation (2PE) rigs were analyzed with ImageJ and plotted using Matlab (v2022b).

Series [2] can be described thus: Toxicity of probe (stated key feature).

For the compound `NCCCC[n+]1cc2ccccc2c2ccccc21` [ABP, N-(4-aminobutyl)phenantridinium], the fluorescence emission maximum entry in series [1] (excitation at 360 nm) is “approximately 420 nm”. For the same compound, the toxicity entry in series [2] is given as “absence of toxicity”. Turning to `O=S(=O)(O)CCCC[n+]1ccc2ccccc2c1` [NSBQ, N-4(sulfobutyl)isoquinolinium, reference compound], in series [1], the “excitation wavelength using 2PE” value is recorded as 710 nm.

Values taken from patent publication US20260265202A1, “N-(N-AMINOALKYL)[…] SERIES OF CHLORIDE-SENSITIVE FLUOROPHORES AND METHODS OF USE THEREOF” (The General Hospital Corporation, priority 2022, published 2026).
